Reference: US5624906A, “Oral hygiene compositions comprising heteroatom containing alkyl aldonamide compounds” (Lever Brothers Company, Division of Conopco, Inc., priority 1994, dated 1997)
Like-named read-outs stand apart in the source and are kept apart here. One block for each molecule: values may come before it.

Tests used:
[1] = Effectiveness of adsorption (surface excess concentration, Gibbs equation); assay type: physicochemical
Source text: The surface excess concentration at surface saturation (Γmax) is defined as a measure of the effectiveness of surfactant adsorption at the water/air interface and represents the maximum value to which adsorption can be obtained. Effectiveness of adsorption is related to the interfacial area occupied by the surfactant molecule. The smaller the effective cross-sectional area of a surfactant at the interface, the greater its effectiveness of adsorption. The effectiveness of adsorption is an important factor in determining surfactant properties such as detergency, foaming, wetting or emulsification. While not wishing to be bound by theory, it is believed that surfactants that absorb effectively at the interface tend have tightly packed coherent interfacial films and often provide better surfactant benefits than those with loosely packed noncoherent films. The effectiveness of adsorption of C8 /C10 oxypropyl D-gluconamide was determined using the Gibbs equation given as: […]
(∂γ/∂log[Conc])T

[2] = cited from earlier work
[3] = cited from earlier work; remark: listed apart in the source
[4] = Effectiveness in reducing surface tension (surface pressure at CMC); assay type: physicochemical; settings: 60 °C
Source text: As mentioned before, surface tension reduction depends on the replacement of water molecules at the interface by surfactant molecules, therefore the effectiveness of a surfactant in reducing interfacial surface tension should reflect the saturated concentration of surfactant at the interface relative to that in bulk liquid phase. During this process the surface tension of water steadily decreases as bulk phase surfactant concentration increases. This will continue until the concentration reaches the critical micelle concentration (CMC), above which the surface tension remains nearly unchanged and the interface is saturated with surfactant. The surface tension at the CMC is therefore very close to the minimum interfacial tension or maximum surface pressure that the system can achieve. The surface pressure at this point, IIcmc, is a suitable measure of the effectiveness of a surfactant in reducing surface tension and is given as:
IIcmc =20+2.3nRT(Γmax) log[CMC/C20 ]
n=1 which represents the number of ions whose surface concentration changes with the change in liquid phase surfactant concentration.
CMC/C20 =is the ratio of the critical micelie concentration to the bulk phase surfactant concentration necessary to reduce the surface tension of water by 20 dyn/cm.

[5] = 25 °C; cited from earlier work
[6] = Clarity of prototype surfactant compositions (Example 87); assay type: physicochemical; settings: room temperature, 6 months
Method: The prototype shampoo composition is as follows:
(§1) The above formulations were prepared by admixing the above ingredients in listed order and heating the mixture to about 80° C. with rapid stirring. The mixture was then cooled to about 40° C., placed in a clear jar and stored at room temperature for 6 months.

[7] = tested on: zein
Source text: The zein solubilization assay was developed to determine the biological effects of surfactants on the skin. The protein is normally in soluble in water, but can be brought into solution by interaction with surfactants. The extent of zein dissolved is related to the irritation potential (M. J. Schwinger, Kolloid-Z. Z. Poly., 233, 848, 1969). The greater the zein solubilization, the greater the irritation potential of that surfactant on the skin.
Thus, a 1% solution of surfactant (30 mls) was added to 1.5 g of zein and stirred at room temperature for 1 hour. Residual zein was collected and dried to constant weight. Differences between starting and residual weights were used to calculate % zein solubilized.

[8] = Packing parameter / micellar shape; assay type: physicochemical
Source text: A theory of miceliar structure, based upon the geometry of various micelie shapes and the space occupied by the surfactant has been disclosed by J. N. Israelachvili, D. J. Mitchell and B. W. Ninham in the J. Chem. Soc. Faraday Trans. 2, 1525, 72, (1976) which is given as the packing parameter (p).
VT=V(CH3) +(nc -1)V(CH2) and represents the volume occupied by the hydrophobic groups in the miceIlar core at a given temperature.
1c =1.50+1.26 nc Å and represents the length of the hydrophobic group in the core.
am =area per molecule or the cross-sectional area occupied by the hydrophilic group at the interface.

[9] = Viscosity of sodium lauryl sulfate compositions (Example 88); assay type: physicochemical; settings: for Viscosity: 22° C.
Method: The prototype surfactant composition is as follows:
as §1
It is well known that the viscosity of a liquid composition comprising of anionic surfactant can be modified by the addition of inorganic salts, such as sodium chloride. However, in the absence of an organic modifier, high levels of salt may be necessary to achieve the required viscosity which may lead to problems of storage at cold temperature or even salting out certain ingredients. In practice, however, the viscosity of a liquid composition is modified by the simultaneous addition of thickener and small amounts of inorganic salt (viscosity cobuilder). The combined effect is greater than either one alone. The viscosity of the above prototype surfactant composition comprising various amounts of heteroatom containing alkyl aldonamide compound is as follows: […]

[10] = Viscosity enhancement of sodium/ammonium lauryl sulfate compositions (formulation Example 86); assay type: physicochemical; settings: 4.0% thickener, 2395/22
[11] = Efficiency in surface tension reduction (pC20); assay type: physicochemical; settings: 60 °C
Source text: Since surface tension reduction depends on the replacement of water molecules at the interface by surfactant molecules, the efficiency of a surfactant in reducing interfacial tension should reflect the concentration of surfactant at the interface relative to that in bulk liquid phase. […] This is defined as the negative logarithm of the bulk phase surfactant concentration necessary to reduce the surface tension of water by 20 dyn/cm and is given as:
C(-Δγ=20) =C20 is the bulk phase surfactant concentration necessary to reduce the surface tension of water by 20 dyn/cm.
In general, pC20 values are usually close to the minimum concentration needed to saturate the interface with surfactant molecules.

[12] = Krafft point; assay type: physicochemical; settings: 0.1% in water
Method: The temperature at and above which surfactants begin to form micelles instead of precipitates is referred to as the Krafft point (Tk) and at this temperature the solubility of a surfactant becomes equal to its CMC (numerical value at which micelles are formed).
The Krafft point was measured by preparing 650 ml of a 0.1% or 1.0% dispersion of aldonamide in water by weight. If the surfactant was soluble at room temperature, the solution was slowly cooled to 0° C. […] (less than zero). If it precipitated out of solution, the temperature at which precipitation occurs was taken as the Krafft point.
If the surfactant was insoluble at room temperature, the dispersion was slowly heated until the solution became homogeneous. It was then slowly cooled until precipitation occurred. The temperature at which the surfactant precipitates out of solution upon cooling was taken as the Krafft point.

[13] = Surface tension at the water/air interface; assay type: physicochemical; settings: 60 °C
Method: An important characteristic feature that surfactants have is the tendency for them to absorb at the water/air interface in an oriented manner, thereby altering the interfacial free energy of that surface. The surface free energy per unit area or surface tension (T), is a measure of this work and may be considered as the minimum amount of work required to bring sufficient surfactant molecules to the surface.
The surface tension (t) value of C8 /C10 oxypropyl D-gluconamide was determined and is set forth below: […]

Γmax (surface excess concentration at surface saturation) ([1]; 60 °C, estimated by extrapolating a linear line): 2.40 × 10^-10 mole/cm^2 | Πcmc (surface pressure) ([4]; estimated by extrapolating a linear line): 36.3 dyn/cm
Molecule: CCCCCCCCCCCCOCCOCCOCCOCCOCCOCCOCCOCCO [Dodecylocta(oxyethylene) Ether]
Γmax (surface excess concentration at surface saturation) ([2]; 25 °C): 2.52 × 10^-10 mole/cm^2 | Γmax (surface excess concentration at surface saturation) ([2]; 40 °C): 2.46 × 10^-10 mole/cm^2 | Πcmc (surface pressure) ([3]; 25 °C): 37.2 dyn/cm | Πcmc (surface pressure) ([3]; 40 °C): 37.3 dyn/cm | pC20 [5]: 5.20

Appearance ([6]; 3.0% in […] sodium lauryl sulfate): Clear | Appearance ([6]; 4.0% in […] sodium lauryl sulfate): Clear | Appearance ([6]; 5.0% in […] sodium lauryl sulfate): Clear | slope of a plot of γ versus log[Conc] ([1]; T=333.15 K): -24.57 ergs/cm^2 | % Zein Solubilized [7]: 6% | 1a (length of the hydrophobic group in the core) ([8]; T=333.15 K): 17.5 Å | micelles predicted from packing parameter ([8]; aqueous media): cylindrical to lameliar micelles | Viscosity Increase ([9]; 1.0% thickener): 13 x | Viscosity ([9]; 1.0% thickener): 200 Centipoise | Viscosity Increase ([9]; 2.0% thickener): 27 x | Viscosity ([9]; 2.0% thickener): 400 Centipoise | Viscosity Increase ([9]; 3.0% thickener): 80 x | Viscosity ([9]; 3.0% thickener): 1200 Centipoise | Viscosity Increase ([9]; 4.0% thickener): 148 x | Viscosity ([9]; 4.0% thickener): 2220 Centipoise | Viscosity Increase ([9]; 5.0% thickener): 860 x | Viscosity ([9]; 5.0% thickener): 12900 Centipoise | CMC/C20 [4]: 5.7 | Πcmc (surface pressure) [4]: 38.5 dyn/cm | increase of viscosity from its normal viscosity [10]: 109 times | pC20 [11]: 4.78 | Krafft Point (0.1%) [12]: 48 °C | Surface tension γ [13]: 29.2 dyn/cm
Molecule: C8 /C10 oxypropyl D-gluconamide
